From ChEMBL document CHEMBL4330157, “Lycopodium Alkaloids: Lycoplatyrine A, an Unusual Lycodine-Piperidine Adduct from Lycopodium platyrhizoma and the Absolute Configurations of Lycoplanine D and Lycogladine H” (J Nat Prod, 2019) come the findings set out here.

By IC50 is commonly meant the concentration needed to halve the response being measured. A lower IC50 goes with inhibition by little substance.

A value given as a limit tells only on which side of the number the result lay.

For the experiment, the target named is Acetylcholinesterase (Homo sapiens, UniProt P22303). Description: Inhibition of AChE (unknown origin) using acetylthiocholine as substrate preincubated for 15 mins followed by substrate addition measured every minute for 15 mins by Ellman's method. (Ellman's reagent forms a yellow product with free thiols.)
Chain of Acetylcholinesterase (P22303 whole entry): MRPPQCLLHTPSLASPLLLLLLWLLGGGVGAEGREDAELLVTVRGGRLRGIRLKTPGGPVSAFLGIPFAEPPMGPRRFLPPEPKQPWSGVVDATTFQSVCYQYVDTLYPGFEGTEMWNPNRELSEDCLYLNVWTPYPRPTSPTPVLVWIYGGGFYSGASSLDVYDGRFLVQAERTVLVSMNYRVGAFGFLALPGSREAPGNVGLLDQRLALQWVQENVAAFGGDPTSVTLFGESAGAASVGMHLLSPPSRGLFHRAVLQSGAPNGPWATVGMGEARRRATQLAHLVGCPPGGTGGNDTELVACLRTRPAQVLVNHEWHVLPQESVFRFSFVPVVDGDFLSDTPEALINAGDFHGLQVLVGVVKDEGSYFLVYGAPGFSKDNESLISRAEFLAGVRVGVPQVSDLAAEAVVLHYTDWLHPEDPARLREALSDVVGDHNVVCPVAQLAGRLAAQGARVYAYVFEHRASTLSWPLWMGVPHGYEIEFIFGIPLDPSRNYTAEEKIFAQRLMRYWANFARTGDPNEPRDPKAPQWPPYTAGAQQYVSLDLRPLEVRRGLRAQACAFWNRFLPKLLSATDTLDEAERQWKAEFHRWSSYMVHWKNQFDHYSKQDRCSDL
Molecule `C[C@@H]1C[C@H]2Cc3ncc(C4CCCCN4)cc3[C@]3(C1)NCCC[C@H]23` (stereo partly drawn) had an IC50 greater than 30 µM.
With `C=C[C@@H]1[C@@H]2CC3=C(CCC(=O)N3)[C@@]1(N)C[C@H](C)C2`, the IC50 is greater than 30 µM.
In turn, `CC1C[C@H]2[C@H](O)[C@@H]3O[C@]4(C1)OC1CCN5CCCC24[C@]13C5` (stereo partly drawn) yielded an IC50 greater than 30 µM.
